{
  "source": "ChEMBL document CHEMBL4020810",
  "about": "“Janus-Associated Kinase 1 (JAK1) Inhibitors as Potential Treatment for Immune Disorders” (ACS Med Chem Lett, 2017)",
  "key": {"[1]": {"molecular_target": "T1, Tyrosine-protein kinase JAK1 (Homo sapiens, UniProt P23458)", "T1 sequence (P23458 whole entry)": "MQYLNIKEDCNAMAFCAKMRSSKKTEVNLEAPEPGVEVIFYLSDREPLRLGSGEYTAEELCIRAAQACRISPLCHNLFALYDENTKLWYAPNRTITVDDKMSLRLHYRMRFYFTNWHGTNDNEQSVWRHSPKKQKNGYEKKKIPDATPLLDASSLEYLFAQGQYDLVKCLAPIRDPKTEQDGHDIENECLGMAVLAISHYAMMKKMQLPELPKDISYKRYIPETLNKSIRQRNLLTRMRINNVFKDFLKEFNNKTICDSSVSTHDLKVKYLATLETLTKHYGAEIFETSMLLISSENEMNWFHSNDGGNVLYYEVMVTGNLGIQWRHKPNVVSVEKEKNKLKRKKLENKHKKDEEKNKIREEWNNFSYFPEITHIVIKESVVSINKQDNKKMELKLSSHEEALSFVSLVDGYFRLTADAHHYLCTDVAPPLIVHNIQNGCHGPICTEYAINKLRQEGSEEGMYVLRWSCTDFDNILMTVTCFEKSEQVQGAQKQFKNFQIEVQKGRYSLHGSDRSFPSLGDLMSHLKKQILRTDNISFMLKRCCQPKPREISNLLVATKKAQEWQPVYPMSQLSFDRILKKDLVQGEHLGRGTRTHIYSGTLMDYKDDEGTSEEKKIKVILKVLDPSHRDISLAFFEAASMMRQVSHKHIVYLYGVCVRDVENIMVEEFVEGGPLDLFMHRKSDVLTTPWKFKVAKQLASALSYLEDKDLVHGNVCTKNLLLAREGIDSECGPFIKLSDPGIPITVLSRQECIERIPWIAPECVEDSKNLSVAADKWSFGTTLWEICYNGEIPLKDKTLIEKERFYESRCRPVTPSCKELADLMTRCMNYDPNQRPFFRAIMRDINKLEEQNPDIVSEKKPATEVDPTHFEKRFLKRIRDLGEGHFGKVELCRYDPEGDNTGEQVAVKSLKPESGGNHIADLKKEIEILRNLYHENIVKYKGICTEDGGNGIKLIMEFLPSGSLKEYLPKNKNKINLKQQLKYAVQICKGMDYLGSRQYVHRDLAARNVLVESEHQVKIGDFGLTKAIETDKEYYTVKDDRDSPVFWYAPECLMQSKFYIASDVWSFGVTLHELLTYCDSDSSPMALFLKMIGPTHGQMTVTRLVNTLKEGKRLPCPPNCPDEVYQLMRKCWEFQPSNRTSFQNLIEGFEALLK", "assay": "Inhibition of JAK1 in human NCI-H1975 cells assessed as reduction in STAT3 phosphorylation incubated for 2 hrs", "format": "cell-based"}, "[2]": {"molecular_target": "T1, Tyrosine-protein kinase JAK1", "assay": "Inhibition of N-terminal GST fused human recombinant JAK1 (866 to 1154 amino acids) expressed in insect cells using ATP and peptide substrate (FITC-C6-KKHTDDGYMPMSPGVA-NH2"}, "[3]": {"molecular_target": "T2, Tyrosine-protein kinase JAK3 (Homo sapiens, UniProt P52333)", "T2 sequence (P52333 whole entry)": "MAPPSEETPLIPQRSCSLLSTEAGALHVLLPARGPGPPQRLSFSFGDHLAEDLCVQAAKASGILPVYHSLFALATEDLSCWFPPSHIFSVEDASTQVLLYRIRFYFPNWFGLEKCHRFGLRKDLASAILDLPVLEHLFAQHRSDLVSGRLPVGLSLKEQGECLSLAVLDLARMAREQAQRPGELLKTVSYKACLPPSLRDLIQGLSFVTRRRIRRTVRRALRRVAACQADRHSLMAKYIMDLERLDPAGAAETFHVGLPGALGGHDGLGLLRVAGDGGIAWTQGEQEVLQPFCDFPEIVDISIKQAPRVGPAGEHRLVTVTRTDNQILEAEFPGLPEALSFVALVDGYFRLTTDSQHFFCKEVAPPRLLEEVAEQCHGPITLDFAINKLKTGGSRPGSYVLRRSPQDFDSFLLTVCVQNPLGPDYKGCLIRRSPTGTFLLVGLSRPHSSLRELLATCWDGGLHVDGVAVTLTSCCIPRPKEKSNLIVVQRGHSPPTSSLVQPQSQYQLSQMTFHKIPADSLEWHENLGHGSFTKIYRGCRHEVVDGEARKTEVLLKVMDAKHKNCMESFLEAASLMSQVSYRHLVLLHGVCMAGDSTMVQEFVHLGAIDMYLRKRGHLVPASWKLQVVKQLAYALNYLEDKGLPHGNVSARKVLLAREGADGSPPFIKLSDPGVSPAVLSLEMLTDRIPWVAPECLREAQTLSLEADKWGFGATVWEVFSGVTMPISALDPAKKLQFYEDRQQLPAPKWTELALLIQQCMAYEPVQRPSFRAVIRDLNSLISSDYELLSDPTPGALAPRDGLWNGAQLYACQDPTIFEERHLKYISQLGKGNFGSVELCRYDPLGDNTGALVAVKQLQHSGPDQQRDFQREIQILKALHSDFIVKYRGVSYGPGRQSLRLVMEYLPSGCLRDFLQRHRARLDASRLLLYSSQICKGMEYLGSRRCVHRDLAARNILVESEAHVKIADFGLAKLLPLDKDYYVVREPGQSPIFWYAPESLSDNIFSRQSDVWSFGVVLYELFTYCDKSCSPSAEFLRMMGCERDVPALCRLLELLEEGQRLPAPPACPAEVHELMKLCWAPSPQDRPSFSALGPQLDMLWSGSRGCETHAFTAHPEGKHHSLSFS", "assay": "Inhibition of N-terminal GST fused recombinant JAK3 (781 to 1124 amino acids) (unknown origin) expressed in insect cells using ATP and peptide substrate (5FAM-GEEPLYWSFPAKKK-NH2"}},
  "data": [
    {"smiles": "COC[C@H](C(=O)Nc1cccc2c(-c3nc(Nc4cn(C)nc4C)ncc3F)c[nH]c12)N1CCN(C)CC1", "values": [
      {"measurement": "IC50", "setting": "[1]", "value": 56.6, "unit": "nM"},
      {"measurement": "IC50", "setting": "[2]", "value": "< 3", "unit": "nM"},
      {"measurement": "IC50", "setting": "[3]", "value": "> 30000", "unit": "nM"}
    ]},
    {"smiles": "COc1nn(C)cc1Nc1ncc(Cl)c(-c2c[nH]c3c(NC(=O)[C@@H](C)N4CCN(C)CC4)cccc23)n1", "values": [
      {"measurement": "IC50", "setting": "[1]", "value": 57.9, "unit": "nM"}
    ]},
    {"smiles": "CCOc1nn(C)cc1Nc1ncc(F)c(-c2c[nH]c3c(NC(=O)[C@H](C)N4CCN(C)C[C@@H]4C)cccc23)n1", "values": [
      {"measurement": "IC50", "setting": "[1]", "value": "> 3000", "unit": "nM"}
    ]},
    {"smiles": "CC[C@H](C(=O)Nc1cccc2c(-c3nc(Nc4cn(C)nc4C)ncc3F)c[nH]c12)N1CCN(C)CC1", "values": [
      {"measurement": "IC50", "setting": "[1]", "value": 75.1, "unit": "nM"},
      {"measurement": "IC50", "setting": "[2]", "value": "< 4", "unit": "nM"},
      {"measurement": "IC50", "setting": "[3]", "value": "> 30000", "unit": "nM"}
    ]},
    {"smiles": "CCOc1nn(C)cc1Nc1ncc(C)c(-c2c[nH]c3c(NC(=O)[C@@H](CC)N4CCN(C)CC4)cccc23)n1", "values": [
      {"measurement": "IC50", "setting": "[1]", "value": 104, "unit": "nM"},
      {"measurement": "IC50", "setting": "[2]", "value": "< 6", "unit": "nM"},
      {"measurement": "IC50", "setting": "[3]", "value": "> 30000", "unit": "nM"}
    ]},
    {"smiles": "COc1nn(C)cc1Nc1nccc(-c2c[nH]c3c(NC(=O)[C@@H](C)N4CCN(C)C[C@@H]4C)cccc23)n1", "values": [
      {"measurement": "IC50", "setting": "[1]", "value": 643, "unit": "nM"}
    ]}
  ]
}
